Data from patent US10472341B2, “Bicyclic tetrahydrothiazepine derivatives useful for the treatment of neoplastic and/or infectious diseases” (APEIRON BIOLOGICS AG, priority 2015, dated 2019).
Read-outs that look alike come from different tables or passages of the source.

How the values were obtained:
[1] = system: aCD3/aCD28-stimulated human CD4+-T-cells; test: IL-2 production and activation markers in aCD3/aCD28 stimulated isolated human CD4+-T-cells; format: cell-based; details: IL-2 production at 3 μM compound
Description: • Buffy coat content was transferred to sterile plastic bottle and filled up to 480 ml with PBS, and distributed equally to 16×50 ml tubes (30 ml/tube) • Underlayed with ˜11 ml Lymphoprep and centrifuged 20 min (2200 rpm) • The interphase containing lymphocytes was taken off with transfer pipette, cells were washed twice with PBS and pooled to one tube to determine cell count (Coulter Diff ACT) Isolation of Immune Cell Subfractions from PBMCs by MACS • PBMCs were resuspended in MACS buffer (80 μl MACS-buffer/10^7 cells) and cells were isolated with Auto-MACS device using respective kits following manufacturer's recommendations TCR Stimulation and Measurement of T Cell Activation
Isolated T cells were plated in Xvivo medium at 1.5*10 ^5 cells per in 96 well culture plates and TCR-stimulated with anti-CD3/28 mAbs in the presence of compound as indicated. Cytokine production was determined at 24 h or 48 h following TCR stimulation in cell culture supernatants using commercially available ELISA kits (BD and eBioscience) as recommended by the manufacturer. T cell proliferation and CD25 expression (CD25-PC5 reagent purchased from Beckman Coulter) was determined by flow cytometry (Beckman-Coulter FC500) and analysed with Kaluza Software. For measurement of CD69 expression, isolated CD4 and CD8 T cells were plated in Xvivo medium at […] per in 96 well culture plates and TCR-stimulated with anti-CD3/28 mAbs in the presence of compound. CD69 expression was determined at 24 h following TCR stimulation by flow cytometry (CD4eF450, CD8APCeF780 and CD69-PC7 reagent purchased from eBioscience) and analysed with Kaluza Software.
Buffy coats were obtained from Austrian Red Cross, diluted 3 fold with PBS and layered onto an isotonic Ficoll separating solution d=1.077 g/m in 50 ml centrifuge tubes. The tubes were centrifuged at 914 g for 25 min at room temperature with the brakes off. The PBMC layer was removed and washed twice with ice-cold PBS. CD4 T cells were isolated using CD4 microbeads (Milteny) and the AutoMACS device following manufacturer's instructions.
Compound examples of the present invention were classified according to the following activity criteria and are listed in Table 4a: • Activity Class A: IL-2 production at 3 μM compound concentration >10 ng/mL • Activity Class B: IL-2 production at 3 μM compound concentration between 2-10 ng/mL • Activity Class C: IL-2 production at 3 μM compound concentration between 2-fold increase as compared to mean IL-2 production of stimulated cells in the absence of compounds and <2 ng/mL

[2] = system: aCD3/aCD28-stimulated human PBMCs; test: Cytokine production in aCD3/aCD28 stimulated human PBMCs; format: cell-based; details: PBMC, 18 h
Method in brief: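 Compound effects measured in buffy-coat PBMCs activated 18 h at 37° C by 1 μg/mL each of soluble anti-CD3 (OKT3) and anti-CD28 (28.2), 1e6 cells/mL. Cytokines in harvested supernatants read by MSD or HTRF.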

[3] = enhancement of IFN-γ production, read-out: Activity Class IFN-γ
[4] = enhancement of IL-2 production, read-out: Activity Class IL-2

Row | Compound | Activity Class CD4+ [1] | EC50 [2, 3] [µM] | EC50 [2, 4] [µM]
1 | CCCCNC(=O)c1ccc2c(c1)N(Cc1cccc(OC(F)(F)F)c1)C(=O)[C@@H](N)CS2.Cl [Example 9, (3R)-3-amino-N-butyl-4-oxo-5-{[3-(trifluoromethoxy)phenyl]methyl}-2,3,4,5-tetrahydro-1,5-benzothiazepine-7-carboxamide hydrochloride] | C (IL-2 production at 3 μM compound concentration between 2-fold increase as compared to mean IL-2 production of stimulated cells in the absence of compounds and <2 ng/mL) | 1.58 to 5.01 | > 5.01
2 | CCCCNC(=O)c1ccc2c(c1)N(Cc1ccc(Cl)cc1)C(=O)[C@@H](N)CS2.Cl [Example 10, (3R)-3-amino-N-butyl-5-[(4-chlorophenyl)methyl]-4-oxo-2,3,4,5-tetrahydro-1,5-benzothiazepine-7-carboxamide hydrochloride] | C (IL-2 production at 3 μM compound concentration between 2-fold increase as compared to mean IL-2 production of stimulated cells in the absence of compounds and <2 ng/mL) | 1.58 to 5.01 | > 5.01
3 | Cl.N[C@H]1CSc2ccc(C(=O)NCc3ccc(N4CCOCC4)cc3)cc2N(Cc2ccc(OC(F)(F)F)cc2)C1=O [Example 11, (3R)-3-amino-N-{[4-(morpholin-4-yl)phenyl]methyl}-4-oxo-5-{[4-(trifluoromethoxy)-phenyl]methyl}-2,3,4,5-tetrahydro-1,5-benzothiazepine-7-carboxamide hydrochloride] | C (IL-2 production at 3 μM compound concentration between 2-fold increase as compared to mean IL-2 production of stimulated cells in the absence of compounds and <2 ng/mL) | > 5.01 | > 5.01
4 | CC(C)(C)C(=O)NCCCNC(=O)c1ccc2c(c1)N(Cc1ccc(OC(F)(F)F)cc1)C(=O)[C@@H](N)CS2.Cl [Example 12, N-(3-{[(3R)-3-amino-4-oxo-5-{[4-(trifluoromethoxy)phenyl]methyl}-2,3,4,5-tetrahydro-1,5-benzothiazepin-7-yl]formamido}propyl)-2,2-dimethylpropanamide hydrochloride] | C (IL-2 production at 3 μM compound concentration between 2-fold increase as compared to mean IL-2 production of stimulated cells in the absence of compounds and <2 ng/mL) | > 5.01 | > 5.01
5 | CNC(=O)c1ccc2c(c1)N(Cc1ccc(OC(F)(F)F)cc1)C(=O)[C@@H](N)CS2.Cl [Example 17, (3R)-3-amino-N-methyl-4-oxo-5-{[4-(trifluoromethoxy)phenyl]methyl}-2,3,4,5-tetrahydro-1,5-benzothiazepine-7-carboxamide hydrochloride] | C (IL-2 production at 3 μM compound concentration between 2-fold increase as compared to mean IL-2 production of stimulated cells in the absence of compounds and <2 ng/mL) | – | > 5.01
6 | CCNC(=O)c1ccc2c(c1)N(Cc1ccc(OC(F)(F)F)cc1)C(=O)[C@@H](N)CS2.Cl [Example 18, (3R)-3-amino-N-ethyl-4-oxo-5-{[4-(trifluoromethoxy)phenyl]methyl}-2,3,4,5-tetrahydro-1,5-benzothiazepine-7-carboxamide hydrochloride] | C (IL-2 production at 3 μM compound concentration between 2-fold increase as compared to mean IL-2 production of stimulated cells in the absence of compounds and <2 ng/mL) | < 1.58 | 1.58 to 5.01
7 | CCCCNC(=O)c1ccc2c(c1)N(Cc1ccc(C#N)cc1)C(=O)[C@@H](N)CS2.Cl [Example 21, (3R)-3-amino-N-butyl-5-[(4-cyanophenyl)methyl]-4-oxo-2,3,4,5-tetrahydro-1,5-benzothiazepine-7-carboxamide hydrochloride] | C (IL-2 production at 3 μM compound concentration between 2-fold increase as compared to mean IL-2 production of stimulated cells in the absence of compounds and <2 ng/mL) | < 1.58 | > 5.01
8 | Cl.N[C@H]1CSc2ccc(C(=O)NCCCC(F)(F)F)cc2N(Cc2ccc(Cl)cc2)C1=O [Example 22, (3R)-3-amino-5-[(4-chlorophenyl)methyl]-4-oxo-N-(4,4,4-trifluorobutyl)-2,3,4,5-tetrahydro-1,5-benzothiazepine-7-carboxamide hydrochloride] | B (IL-2 production at 3 μM compound concentration between 2-10 ng/mL) | 1.58 to 5.01 | 1.58 to 5.01
9 | Cl.N[C@H]1CSc2ccc(C(=O)NCC3CCOCC3)cc2N(Cc2ccc(Cl)cc2)C1=O [Example 23, (3R)-3-amino-5-[(4-chlorophenyl)methyl]-N-(oxan-4-ylmethyl)-4-oxo-2,3,4,5-tetrahydro-1,5-benzothiazepine-7-carboxamide hydrochloride] | B (IL-2 production at 3 μM compound concentration between 2-10 ng/mL) | 1.58 to 5.01 | > 5.01
10 | Cl.Cl.N[C@H]1CSc2ccc(C(=O)Nc3cccnc3)cc2N(Cc2ccc(OC(F)(F)F)cc2)C1=O [Example 25, (3R)-3-amino-4-oxo-N-(pyridin-3-yl)-5-{[4-(trifluoromethoxy)phenyl]methyl}-2,3,4,5-tetrahydro-1,5-benzothiazepine-7-carboxamide dihydrochloride] | C (IL-2 production at 3 μM compound concentration between 2-fold increase as compared to mean IL-2 production of stimulated cells in the absence of compounds and <2 ng/mL) | > 5.01 | 1.58 to 5.01
11 | Cl.N[C@H]1CSc2ccc(C(=O)NCc3ccc(F)cc3)cc2N(Cc2ccc(Cl)cc2)C1=O [Example 26, (3R)-3-amino-5-[(4-chlorophenyl)methyl]-N-[(4-fluorophenyl)methyl]-4-oxo-2,3,4,5-tetrahydro-1,5-benzothiazepine-7-carboxamide hydrochloride] | B (IL-2 production at 3 μM compound concentration between 2-10 ng/mL) | < 1.58 | 1.58 to 5.01
12 | COc1ccc([C@@H](C)NC(=O)c2ccc3c(c2)N(Cc2ccc(Cl)cc2)C(=O)[C@@H](N)CS3)cc1 [Example 27, (3R)-3-amino-5-[(4-chlorophenyl)methyl]-N-[(1R)-1-(4-methoxyphenyl)ethyl]-4-oxo-2,3,4,5-tetrahydro-1,5-benzothiazepine-7-carboxamide] | B (IL-2 production at 3 μM compound concentration between 2-10 ng/mL) | < 1.58 | 1.58 to 5.01
13 | Cl.N[C@H]1CSc2ccc(C(=O)NCC3CCCOC3)cc2N(Cc2ccc(Cl)cc2)C1=O (stereo partly drawn) [Example 28, (3R)-3-amino-5-[(4-chlorophenyl)methyl]-N-(oxan-3-ylmethyl)-4-oxo-2,3,4,5-tetrahydro-1,5-benzothiazepine-7-carboxamide hydrochloride] | C (IL-2 production at 3 μM compound concentration between 2-fold increase as compared to mean IL-2 production of stimulated cells in the absence of compounds and <2 ng/mL) | 1.58 to 5.01 | > 5.01
14 | Cl.N[C@H]1CSc2ccc(C(=O)NCCCC(F)(F)F)cc2N(Cc2ccc(OC(F)(F)F)cc2)C1=O [Example 29, (3R)-3-amino-4-oxo-N-(4,4,4-trifluorobutyl)-5-{[4-(trifluoromethoxy)phenyl]methyl}-2,3,4,5-tetrahydro-1,5-benzothiazepine-7-carboxamide hydrochloride] | B (IL-2 production at 3 μM compound concentration between 2-10 ng/mL) | < 1.58 | < 1.58
15 | Cl.N[C@H]1CSc2ccc(C(=O)NCC3CCOCC3)cc2N(Cc2ccc(OC(F)(F)F)cc2)C1=O [Example 30, (3R)-3-amino-N-(oxan-4-ylmethyl)-4-oxo-5-{[4-(trifluoromethoxy)phenyl]methyl}-2,3,4,5-tetrahydro-1,5-benzothiazepine-7-carboxamide hydrochloride] | B (IL-2 production at 3 μM compound concentration between 2-10 ng/mL) | > 5.01 | 1.58 to 5.01
16 | Cl.N[C@H]1CSc2ccc(C(=O)NCc3ccc(F)cc3)cc2N(Cc2ccc(OC(F)(F)F)cc2)C1=O [Example 31, (3R)-3-amino-N-[(4-fluorophenyl)methyl]-4-oxo-5-{[4-(trifluoromethoxy)phenyl]-methyl}-2,3,4,5-tetrahydro-1,5-benzothiazepine-7-carboxamide hydrochloride] | B (IL-2 production at 3 μM compound concentration between 2-10 ng/mL) | < 1.58 | < 1.58
